Data published in patent US8603737B2, “Methods for identifying HCV protease inhibitors” (priority 2008, dated 2013).

Key:
[1] = molecular target: T1, NS3 protease self-cleavage in Huh-7-Luc-Neo-ET cells (Hepatitis C virus genotype 1b, UniProt Q9WMX2, E1202G/T1280I); type: cell-based, HCV; details: replicon cells treated for 16 hours, continuous exposure (FIG. 3)
T1 construct: host or cells: Huh-7-Luc-Neo-ET replicon cells (human hepatoma Huh7)
Method: Inhibition of Protease Self Cleavage
The remaining wells were rinsed 2× with PBS then fed with Replicon Media and returned to the incubator.
Cell lysates were separated by SDS-Page (4-20%) and transferred to Immobilon-P PVDF membrane (Millipore Corporation, MA) and blotted with polyclonal anti NS3 antibody (Bioenza, Calif.). Blots were scanned on an Odyssey infrared scanner from Licor and the FL band and cleavage products were quantified separately using the Licor software provided with the scanner. The cleavage product was calculated as a percentage of the total NS3 in each sample and then normalized to the DMSO control so that the DMSO control reflects 100% activity.

HCV (R155K) mutant = assay: Mass spectrometric analysis of covalent modification, R155K mutant; type: binding; details: 3 hours reaction time
Method: (§1) Mass spectrometric analysis of HCV wild type or HCV variants (C159S, A156S, R155K, D168A, A156T, and D168V) in the presence of test compound was performed. 100 pmols of HCV wild type (Bioenza Calif.) was incubated with test compound for 1 hr and 3 hrs at 10-fold excess of test compound to protein. 1 μL aliquots of the samples (total volume of 4.24 μL) were diluted with 10 μL of 0.1% TFA prior to micro C4 ZipTipping directly onto the MALDI target using Sinapinic acid as the desorption matrix (10 mg/mL in 0.1% TFA:Acetonitrile 50:50). Analyses were performed on a Shimadzu Biotech Axima TOF (Shimadzu Instruments) matrix-assisted-laser desorption/ionization Time-of-Flight (MALDI-TOF) mass spectrometer. The same procedure was carried out on 100 pmols of HCV C159S mutant of HCV protease for 3 hrs at 10-fold excess of test compound to protein.

HCV (A156T) mutant = molecular target: T2, HCV (A156T) mutant (Hepatitis C virus genotype 1b, UniProt P26663, A1182T); assay: Mass spectrometric analysis of covalent modification, A156T mutant; type: binding; details: 3 hours reaction time
T2 construct: genotype 1b mutations in the NS3 protease of A156T, A156S, D168V, D168A, and R155K
Method: as §1

HCV (D168V) mutant = molecular target: T3, HCV (D168V) mutant (Hepatitis C virus genotype 1b, UniProt P26663, D1194V); assay: Mass spectrometric analysis of covalent modification, D168V mutant; type: binding; details: 3 hours reaction time
T3 construct: genotype 1b mutations in the NS3 protease of A156T, A156S, D168V, D168A, and R155K
Method: as §1

HCV (A156S) mutant = molecular target: T4, HCV (A156S) mutant (Hepatitis C virus genotype 1b, UniProt P26663, A1182S); assay: Mass spectrometric analysis of covalent modification, A156S mutant; type: binding; details: 3 hours reaction time
T4 construct: genotype 1b mutations in the NS3 protease of A156T, A156S, D168V, D168A, and R155K
Method: as §1

[2] = test system: HCV RNA replicon in cell line ET (luc-ubi-neo/ET), human Huh7 hepatoma; assay: HCV RNA replicon assay (Example 5, Method A); type: cell-based; details: Hepatitis C virus, Huh-7, 72 h
Method: The compounds were assayed to evaluate the antiviral activity and cytotoxicity of compounds in vitro using HCV RNA replicons. This assay used the cell line ET (luc-ubi-neo/ET), which is a human Huh7 hepatoma cell line that contains an HCV RNA replicon with a stable luciferase (Luc) reporter and cell culture-adaptive mutations. The HCV RNA levels were directly measured by viral specific TaqMan RT-PCR:
The ET cell line was grown in Dulbecco's modified essential media (DMEM), 10% fetal bovine serum (FBS), 1% penicillin-streptomycin (pen-strep), 1% glutamine, 250 μg/mL G418 in a 5% CO2 incubator at 37° C. All cell culture reagents were obtained from Mediatech (Manassas, Va.). Cells were trypsinized (1% trypsin:EDTA) and plated out at 5×10^3 cells/well in white 96-well assay plates (Costar) dedicated to cell number (cytotoxicity) or antiviral activity assessments. Drugs were added at six 3-fold concentrations each and the assay was run in DMEM, 5% FBS, 1% pen-strep, 1% glutamine. Human interferon alpha-2b (PBL Biolabs, New Brunswick, N.J.) was included in each run as a positive control compound. […] Antiviral activity was measured by analyzing replicon-derived luciferase activity using the Steady-Glo Luciferase Assay System (Promega, Madison, Wis.) according to manufacturer's instruction. The number of cells in each well was determined by CytoTox-1 reagent (Promega). […]

CC(C)(C)OC(=O)NC1CN(C(=O)CCl)CCC/C=C\[C@@H]2C[C@@]2(C(=O)NS(=O)(=O)C2CC2)NC(=O)[C@@H]2C[C@@H](OC(=O)N3Cc4cccc(F)c4C3)CN2C1=O (stereo partly shown) [Compound 8]
NS3 internal self-cleavage products after treatment [1]: inhibited

C=CC(=O)N(C)C[C@H](NC(=O)OC(C)(C)C)C(=O)N1C[C@H](OC(=O)N2Cc3cccc(F)c3C2)C[C@H]1C(=O)N[C@]1(C(=O)NS(=O)(=O)C2CC2)C[C@H]1C=C [Compound 4]
conversion via covalent modification (mass spectrometry) (HCV (R155K) mutant): good conversion | conversion via covalent modification (mass spectrometry) (HCV (A156T) mutant): complete conversion | conversion via covalent modification (mass spectrometry) (HCV (D168V) mutant): complete conversion | conversion via covalent modification (mass spectrometry) (HCV (A156S) mutant): complete conversion

C=C[C@@H]1C[C@]1(NC(=O)[C@@H]1C[C@@H](Oc2cc(-c3ccccc3)nc3cc(OC)ccc23)CN1C(=O)C(NC(=O)OC(C)(C)C)[C@@H](C)OC(=O)/C=C/C)C(=O)NS(=O)(=O)C1CC1 (stereo partly shown) [Compound 3]
IC50 ([2]; read-out: Inhibition, Replicon (IC50)): < 10 nM | IC90 ([2]; read-out: Inhibition, Replicon, IC90 value): < 10 nM
